# Laboratory results taken from patent US20210205365A1, “Chimeric Growth Factor Receptors” (Instil Bio (UK) Ltd., priority 2018, published 2021).
# Columns and labels:
# primary human T-cells [1] = experiment: Eltrombopag and IL-2 on CrGFR transduced primary human T-cells, up to 21 days; type: cell-based; conditions: after 21 days, x3 donors, Eltrombopag
# Description: (§1) FIGS. 6A-6B—Analysis of Eltrombopag and IL-2 on primary human T-cells from Donor 1. Primary human T-cells from donor 1 were transduced with the WT TpoR or variant CrGFR and incubated in the presence of IL2 or Eltrombopag. Cells were removed at time points up to 21 days and the proportion of cells expressing the receptor assessed using PE conjugated anti-CD110 antibodies and a MACSQuant analyser.
# as §1, with “FIGS. 7A-7B—Analysis” for “FIGS. 6A-6B—Analysis”, “Donor 2.” for “Donor 1.”, “donor 2” for “donor 1”
# as §1, with “FIGS. 8A-8B—Analysis” for “FIGS. 6A-6B—Analysis”, “Donor 3.” for “Donor 1.”, “donor 3” for “donor 1”
# FIGS. 9A-9B—Selection of optimal CrGFRs for next round of analysis. Flow cytometry plots showing expression of CrGFRs in ×3 donor primary human T-cells after 21 days incubation in Eltrombopag. The receptors TpoR.CD40, TpoR.IL2rγ, TpoR.ITAM1, TpoR.A60, TpoR.LMP1-cyto and TpoR.TpoR-cyto.LMP1-cyto were chosen for future comparison with the wt TpoR.
# Peripheral blood mononuclear cells were isolated from normal healthy donors before activation for 24 hours with T-cell activation and expansion beads (Invitrogen) according to the manufacturer's instructions before addition of lentiviral supernatants.
# Following expansion cells were washed excessively to remove any exogenous IL2 and plated into 96-well U-bottom plates. Cells were supplemented with IL2 (Proleukin) or Eltrombopag (Stratech Scientific, Suffolk, UK). At various time points thereafter cells were either stained with a 1:400 dilution of eFlor-450 fixable viability dye (eBioscience, UK) and counted directly from the wells using a MACSQuant Cytometer, or were stained with DRAQ7 viability dye plus phycoerythrin conjugated anti-CD110 antibodies (Miltenyi Biotec, UK) and analysed using a MACSQuant cytomter. Cell viability and/or transduction level was then analysed using MACSQuantify software (Miltenyi Biotec, UK).
# Next Applicants took these receptors and expressed them in primary human T-cells and exposed these cells to IL-2 or Eltrombopag. Three donor primary human T-cell populations were isolated from buffy coats and transduced with the indicated lentiviral constructs in the presence of CD3/CD28 Dynabeads. Following expansion the cells were incubated with IL-2 or Eltrombopag. Applicants saw an increase in expansion/survival of T-cells with some of the receptors in some of the donors. […] This narrowed Applicants' panel of receptors to analyse further to: TpoR.CD40, TpOR.IL2rγ, TpoR.ITAM1, TpOR.LMP1-cyt, and TpoR.TpoR-cyt-LMP1-cyt.
# phospho-STAT5 = experiment: Induction of pSTAT5 in CrGFR expressing T-cells; type: cell-based, human; conditions: CrGFR expressing T-cells from 4 donors treated for four hours
# Description: FIG. 15—Induction of pSTAT by chimeric recombinant growth factor receptors. Primary human T-cells were isolated and transduced with the indicated CrGFR. Cells were enriched for CrGFR expression using Miltenyi MACS technology and expanded via polyclonal stimulation. The enriched cells were stimulated for 4 h with either media alone (RPMI), IL2, IL12, Tpo or Eltrombopag (Elt) before methanol fixation and intracellular staining with antibodies towards phospho-STAT5.
# Finally, Applicants validated the signalling potential of the novel CrGFR by conducting phospho STAT analysis upon treatment of CrGFR expressing T-cells with media, cytokine or drug. To this end T-cells from 4 donors were transduced with either the wt TpoR, TpoR. CD40 or TpoR.IL2rγ, enriched for CrGFR expression using paramagnetic bead selection protocols and then expanded using polyclonal stimulation. The cells were treated for four hours with media alone (RPMI), IL-2, Tpo or Eltrombopag (Elt) before methanol fixation, permeabilization and analysis using pSTAT specific antibodies. STAT molecules are the key drivers of cell signalling upon cytokine activation of cells, pSTAT5 in particular is key to IL-2 activity.
# primary human T-cells [2] = experiment: Eltrombopag and IL-2 on CrGFR sorted (CD110+) primary human T-cells, up to 7 days; type: cell-based; conditions: second donor (FIG. 12)
# Description: (§2) FIG. 10—Analysis of Eltrombopag and IL-2 on CrGFR sorted primary human T-cells from Donor 4. Primary human T-cells from donor 4 were transduced with the WT TpoR or variant CrGFR, and enriched for expression by Miltenyi MACS technology selected for and incubated in the presence of IL2 or Eltrombopag. Cells were removed at time points up to 7 days and the number of cells expressing the receptor assessed using PE conjugated anti-CD110 antibodies, DRAQ7 viability dye and a MACSQuant analyser.
# as §2, with “11—Analysis” for “10—Analysis”, “5.” for “4.”, “5” for “4”
# as §2, with “12—Analysis” for “10—Analysis”, “6.” for “4.”, “6” for “4”
# Paramagnetic bead sorts were conducted as per the manufacturers' instructions using either anti-PE microbeads (Miltenyi Biotec or StemCell Technologies), or T-cell isolation beads (17951: StemCell Technologies).
# Next Applicants repeated the experiment but sorted the CrGFR+ cells using CD110+ selection by paramagnetic bead selection using the receptors identified from the first round of selections (FIGS. 10, 11 and 12). Applicants observed enhanced survival of T-cells engrafted with the majority of the CrGFR in all three donors. In particular Applicants saw expansion of WT-TpoR, TpOR.CD40, TpOR.IL2rγ and TpoR.LMP1-cyto cells in the second donor (FIG. 12) above that with media alone.
Molecule,proportion of viable cells with a distinct population of CD110+ cells (primary human T-cells [1]),induction of pSTAT5 by cytokine or drug (phospho-STAT5),expansion of CrGFR cells above that with media alone (primary human T-cells [2])
TpoR.TpoR-cyt-LMP1-cyt: SEQ ID NO: 11; TpoR with TpoR cytoplasmic domain fused to LMP-1 cytoplasmic domain,good proportion of viable cells with a distinct population of CD110+ cells,,
"Tpo: thrombopoietin (Tpo), native ligand of TpoR",,showed induction of STAT5 activity,
TpoR.LMP1-cyt: SEQ ID NO: 12; TpoR EC and TM domain fused to LMP-1 cytoplasmic domain,good proportion of viable cells with a distinct population of CD110+ cells,,expansion
"TpoR.Δ60: SEQ ID NO: 2; TpoR with C-terminal truncation of the cytoplasmic domain (protein, TpoR.delta60; MISC_FEATURE (1)..(491): TpoR Extracellular Domain; MISC_FEATURE (492)..(513): TpoR Transmembrane Domain; MISC_FEATURE (514)..(580): TpoR Cytoplasmic Domain with C-terminal Truncation) MPSWALFMVTSCLLLAPQNLAQVSSQDVSLLASDSEPLKCFSRTFEDLTCFWDEEEAAPSGTYQLLYAYPREKPRACPLSSQSMPHFGTRYVCQFPDQEEVRLFFPLHLWVKNVFLNQTRTQRVLFVDSVGLPAPPSIIKAMGGSQPGELQISWEEPAPEISDFLRYELRYGPRDPKNSTGPTVIQLIATETCCPALQRPHSASALDQSPCAQPTMPWQDGPKQTSPSREASALTAEGGSCLISGLQPGNSYWLQLRSEPDGISLGGSWGSWSLPVTVDLPGDAVALGLQCFTLDLKNVTCQWQQQDHASSQGFFYHSRARCCPRDRYPIWENCEEEEKTNPGLQTPQFSRCHFKSRNDSIIHILVEVTTAPGTVHSYLGSPFWIHQAVRLPTPNLHWREISSGHLELEWQHPSSWAAQETCYQLRYTGEGHQDWKVLEPPLGARGGTLELRPRSRYRLQLRARLNGPTYQGPWSSWSDPTRVETATETAWISLVTALHLVLGLSAVLGLLLLRWQFPAHYRRLRHALWPSLPDLHRVLGQYLRDTAALSPPKATVSDTCEEVEPSLLEILPKSSERTPL",looked good,,
"TpoR.ITAM1: SEQ ID NO: 10; TpoR fused to ITAM1 cytoplasmic domain (protein, TpoR-ITAM1; MISC_FEATURE (1)..(491): TpoR Extracellular Domain; MISC_FEATURE (492)..(513): TpoR Transmembrane Domain; MISC_FEATURE (514)..(635): TpoR Cytoplasmic Domain; MISC_FEATURE (636)..(676): ITAM1 Cytoplasmic Domain) MPSWALFMVTSCLLLAPQNLAQVSSQDVSLLASDSEPLKCFSRTFEDLTCFWDEEEAAPSGTYQLLYAYPREKPRACPLSSQSMPHFGTRYVCQFPDQEEVRLFFPLHLWVKNVFLNQTRTQRVLFVDSVGLPAPPSIIKAMGGSQPGELQISWEEPAPEISDFLRYELRYGPRDPKNSTGPTVIQLIATETCCPALQRPHSASALDQSPCAQPTMPWQDGPKQTSPSREASALTAEGGSCLISGLQPGNSYWLQLRSEPDGISLGGSWGSWSLPVTVDLPGDAVALGLQCFTLDLKNVTCQWQQQDHASSQGFFYHSRARCCPRDRYPIWENCEEEEKTNPGLQTPQFSRCHFKSRNDSIIHILVEVTTAPGTVHSYLGSPFWIHQAVRLPTPNLHWREISSGHLELEWQHPSSWAAQETCYQLRYTGEGHQDWKVLEPPLGARGGTLELRPRSRYRLQLRARLNGPTYQGPWSSWSDPTRVETATETAWISLVTALHLVLGLSAVLGLLLLRWQFPAHYRRLRHALWPSLPDLHRVLGQYLRDTAALSPPKATVSDTCEEVEPSLLEILPKSSERTPLPLCSSQAQMDYRRLQPSCLGTMPLSVCPPMAESGSCCTTHIANHSYLPLSYWQQPRVKFSRSADAPAYQQGQNQLYNELNLGRREEYDVLDKRRGR",good proportion of viable cells with a distinct population of CD110+ cells,,
"IL-12: IL-12 as a control (protein, UniProt P29459 23-219; P29460 23-328, looked up) Interleukin-12 subunit alpha: RNLPVATPDPGMFPCLHHSQNLLRAVSNMLQKARQTLEFYPCTSEEIDHEDITKDKTSTVEACLPLELTKNESCLNSRETSFITNGSCLASRKTSFMMALCLSSIYEDLKMYQVEFKTMNAKLLMDPKRQIFLDQNMLAVIDELMQALNFNSETVPQKSSLEEPDFYKTKIKLCILLHAFRIRAVTIDRVMSYLNAS Interleukin-12 subunit beta: IWELKKDVYVVELDWYPDAPGEMVVLTCDTPEEDGITWTLDQSSEVLGSGKTLTIQVKEFGDAGQYTCHKGGEVLSHSLLLLHKKEDGIWSTDILKDQKEPKNKTFLRCEAKNYSGRFTCWWLTTISTDLTFSVKSSRGSSDPQGVTCGAATLSAERVRGDNKEYEYSVECQEDSACPAAEESLPIEVMVDAVHKLKYENYTSSFFIRDIIKPDPPKNLQLKPLKNSRQVEVSWEYPDTWSTPHSYFSLTFCVQVQGKSKREKKDRVFTDKTSATVICRKNASISVRAQDRYYSSSWSEWASVPCS",,unable to induce STAT5 activation,
